In patent publication US6358885B1, “Substituted phenylheterocyclic herbicides” (Mississippi State University, priority 1992, dated 2002):

Columns and labels:
[1] = system: rice; assay: Test B preemergence/postemergence greenhouse plant response rating 0 to 10; assay type: in vivo, Oryza sativa; conditions: 0 to 10 scale
How it was run: (§1)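 Test chemicals were sprayed onto freshly planted seed and, concurrently, onto young plants between the one and four leaf stage. After a twelve- to sixteen-day greenhouse period, each species was visually compared with untreated controls.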

[2] = system: velvetleaf; assay: Test C preemergence/postemergence greenhouse plant response rating 0 to 100; assay type: in vivo, Abutilon theophrasti; conditions: POSTEMERGENCE; for Plant response rating, Velvetleaf: 0 to 100 scale
How it was run: (§2)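 Compounds in non-phytotoxic solvent went onto sandy loam before emergence (seeded one day earlier) or onto plants at the one-to-four leaf stage. Duck salad was treated via flood water (~2.5 cm, maintained) over silt loam.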

[3] = system: corn; assay: as above; assay type: in vivo, Zea mays; conditions: POSTEMERGENCE; for Plant response rating, Corn: 0 to 100 scale
How it was run: as §2

[4] = system: rice; assay: Test C flood test plant response rating 0 to 100; assay type: in vivo, Oryza sativa; conditions: for Plant response rating Rice Japonica: flood test species listed under POSTEMERGENCE, 0 to 100 scale
How it was run: (§3)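 Compounds in non-phytotoxic solvent applied preemergence to sandy loam one day after planting, postemergence at the 1–4 leaf stage, or to ~2.5 cm floodwater over silt loam.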

[5] = system: bedstraw; assay: Test C preemergence/postemergence greenhouse plant response rating 0 to 100; assay type: in vivo, Galium aparine; conditions: POSTEMERGENCE; for Plant response rating, Bedstraw: 0 to 100 scale
How it was run: as §2

[6] = system: sugar beet; assay: as above; assay type: in vivo, Beta vulgaris; conditions: POSTEMERGENCE; for Plant response rating, Sugar beet: 0 to 100 scale
How it was run: as §2

[7] = system: chickweed; assay: as above; assay type: in vivo, Stellaria media; conditions: POSTEMERGENCE; for Plant response rating, Chickweed: 0 to 100 scale
How it was run: as §2

[8] = system: soybean; assay: Test B preemergence/postemergence greenhouse plant response rating 0 to 10; assay type: in vivo, Glycine max; conditions: 0 to 10 scale
How it was run: as §1

[9] = system: duck salad; assay: Test C flood test plant response rating 0 to 100; assay type: in vivo, Heteranthera limosa; conditions: for Plant response rating Duck salad: flood test species listed under POSTEMERGENCE, 0 to 100 scale
How it was run: as §2

[10] = system: pigweed; assay: Test C preemergence/postemergence greenhouse plant response rating 0 to 100; assay type: in vivo, Amaranthusretroflexus; conditions: POSTEMERGENCE; for Plant response rating Pigweed: 0 to 100 scale
How it was run: as §2

[11] = system: wild buckwheat; assay: Test B preemergence/postemergence greenhouse plant response rating 0 to 10; assay type: in vivo, Polygonum convolvulus; conditions: 0 to 10 scale
How it was run: as §1

[12] = system: giant foxtail; assay: Test C preemergence/postemergence greenhouse plant response rating 0 to 100; assay type: in vivo, Setaria faberii; conditions: POSTEMERGENCE; for Plant response rating, Giant foxtail: 0 to 100 scale
How it was run: as §2

[13] = system: cotton; assay: as above; assay type: in vivo, Gossypium hirsutum; conditions: POSTEMERGENCE; for Plant response rating, Cotton: 0 to 100 scale
How it was run: as §2

[14] = system: cocklebur; assay: Test B preemergence/postemergence greenhouse plant response rating 0 to 10; assay type: in vivo, Xanthium pensylvanicum; conditions: 0 to 10 scale
How it was run: as §1

[15] = system: umbrella sedge; assay: Test C flood test plant response rating 0 to 100; assay type: in vivo, Cyperus difformis; conditions: for Plant response rating Umbrella sedge: flood test species listed under POSTEMERGENCE, 0 to 100 scale
How it was run: as §3

[16] = system: purple nutsedge; assay: Test B preemergence/postemergence greenhouse plant response rating 0 to 10; assay type: in vivo, Cyperus rotundus; conditions: 0 to 10 scale
How it was run: as §1

[17] = system: blackgrass; assay: Test C preemergence/postemergence greenhouse plant response rating 0 to 100; assay type: in vivo, Alopecurus myosuroides; conditions: POSTEMERGENCE; for Plant response rating, Blackgrass: 0 to 100 scale
How it was run: as §2

[18] = POSTEMERGENCE section, flood test, Rate 4 g/ha
[19] = Rate 16 g/ha, under POSTEMERGENCE head (flood test species)

## CCC(C)Oc1cc(-c2nn3c(c2Cl)CCCC3)c(F)cc1Cl (stereo not shown) [Compound 48]
[1]; POSTEMERGENCE, Rate 50 g/ha
  Plant response rating, Rice: 3
[1]; PREEMERGENCE, Rate 50 g/ha
  Plant response rating, Rice: 1
[1]; Rate 200 g/ha, POSTEMERGENCE
  Plant response rating, Rice: 8
[1]; Rate 200 g/ha, PREEMERGENCE
  Plant response rating, Rice: 2
[2]; 62 g/ha
  Plant response rating, Velvetleaf: 90
[2]; 250 g/ha
  Plant response rating, Velvetleaf: 90
[2]; Rate 4 g/ha
  Plant response rating (0 to 100), Velvetleaf: 30
[2]; Rate 16 g/ha
  Plant response rating (0 to 100), Velvetleaf: 80
[3]; 62 g/ha
  Plant response rating, Corn: 40
[3]; 250 g/ha
  Plant response rating, Corn: 50
[3]; Rate 4 g/ha
  Plant response rating (0 to 100), Corn: 10
[3]; Rate 16 g/ha
  Plant response rating (0 to 100), Corn: 30
[4]; [18]
  Plant response rating (0 to 100), Rice Japonica: 10
[4]; [19]
  Plant response rating (0 to 100), Rice Japonica: 20
[4]; 62 g/ha
  Plant response rating Rice Japonica: 30
[4]; 250 g/ha
  Plant response rating Rice Japonica: 60
[5]; 62 g/ha
  Plant response rating, Bedstraw: 100
[5]; 250 g/ha
  Plant response rating, Bedstraw: 100
[5]; Rate 4 g/ha
  Plant response rating (0 to 100), Bedstraw: 20
[5]; Rate 16 g/ha
  Plant response rating (0 to 100), Bedstraw: 40
[6]; 62 g/ha
  Plant response rating, Sugar beet: 100
[6]; 250 g/ha
  Plant response rating, Sugar beet: 100
[6]; Rate 4 g/ha
  Plant response rating (0 to 100), Sugar beet: 100
[6]; Rate 16 g/ha
  Plant response rating (0 to 100), Sugar beet: 100
[7]; 62 g/ha
  Plant response rating, Chickweed: 60
[7]; 250 g/ha
  Plant response rating, Chickweed: 80
[7]; Rate 4 g/ha
  Plant response rating (0 to 100), Chickweed: 10
[7]; Rate 16 g/ha
  Plant response rating (0 to 100), Chickweed: 30
[8]; POSTEMERGENCE, Rate 50 g/ha
  Plant response rating, Soybean: 7
[8]; PREEMERGENCE, Rate 50 g/ha
  Plant response rating, Soybean: 0
[8]; Rate 200 g/ha, POSTEMERGENCE
  Plant response rating, Soybean: 7
[8]; Rate 200 g/ha, PREEMERGENCE
  Plant response rating, Soybean: 0
[9]; [18]
  Plant response rating (0 to 100), Duck salad: 0
[9]; [19]
  Plant response rating (0 to 100), Duck salad: 10
[9]; 62 g/ha
  Plant response rating Duck salad: 60
[9]; 250 g/ha
  Plant response rating Duck salad: 80
[10]; 62 g/ha
  Plant response rating Pigweed: 100
[10]; 250 g/ha
  Plant response rating Pigweed: 100
[10]; Rate 4 g/ha
  Plant response rating (0 to 100), Pigweed: 80
[10]; Rate 16 g/ha
  Plant response rating (0 to 100), Pigweed: 90
[11]; POSTEMERGENCE, Rate 50 g/ha
  Plant response rating, Wild buckwheat: 10
[11]; PREEMERGENCE, Rate 50 g/ha
  Plant response rating, Wild buckwheat: 9
[11]; Rate 200 g/ha, POSTEMERGENCE
  Plant response rating, Wild buckwheat: 9
[11]; Rate 200 g/ha, PREEMERGENCE
  Plant response rating, Wild buckwheat: 10
[12]; 62 g/ha
  Plant response rating, Giant foxtail: 40
[12]; 250 g/ha
  Plant response rating, Giant foxtail: 90
[12]; Rate 4 g/ha
  Plant response rating (0 to 100), Giant foxtail: 20
[12]; Rate 16 g/ha
  Plant response rating (0 to 100), Giant foxtail: 30
[13]; 62 g/ha
  Plant response rating, Cotton: 100
[13]; 250 g/ha
  Plant response rating, Cotton: 100
[13]; Rate 4 g/ha
  Plant response rating (0 to 100), Cotton: 90
[13]; Rate 16 g/ha
  Plant response rating (0 to 100), Cotton: 100
[14]; POSTEMERGENCE, Rate 50 g/ha
  Plant response rating, Cocklebur: 7
[14]; POSTEMERGENCE, Rate 200 g/ha
  Plant response rating, Cocklebur: 9
[14]; Rate 200 g/ha, PREEMERGENCE
  Plant response rating, Cocklebur: 0
[15]; [18]
  Plant response rating (0 to 100), Umbrella sedge: 10
[15]; [19]
  Plant response rating (0 to 100), Umbrella sedge: 10
[15]; 62 g/ha
  Plant response rating Umbrella sedge: 40
[15]; 250 g/ha
  Plant response rating Umbrella sedge: 70
[16]; POSTEMERGENCE, Rate 50 g/ha
  Plant response rating, Nutsedge: 4
[16]; PREEMERGENCE, Rate 50 g/ha
  Plant response rating, Nutsedge: 0
[16]; Rate 200 g/ha, POSTEMERGENCE
  Plant response rating, Nutsedge: 5
[16]; Rate 200 g/ha, PREEMERGENCE
  Plant response rating, Nutsedge: 0
[17]; 62 g/ha
  Plant response rating, Blackgrass: 50
[17]; 250 g/ha
  Plant response rating, Blackgrass: 60
[17]; Rate 4 g/ha
  Plant response rating (0 to 100), Blackgrass: 20
[17]; Rate 16 g/ha
  Plant response rating (0 to 100), Blackgrass: 30
